≈ marks a conversion by molar mass, not a printed value. Calls of active or inactive are those of the source. The calls are words filed in the database; no cut-off is given here.
What was measured:
[1] = system: Aedes aegypti; assay: Larvicidal activity against Aedes aegypti fourth instar larvae after 24 hrs; type: functional; details: for LC50: Aedes aegypti, 24 h
[2] = system: Aedes aegypti; assay: Larvicidal activity against Aedes aegypti fourth instar larvae at 20 ug/ml after 24 hrs; type: functional
[3] = system: Aedes aegypti; assay: Larvicidal activity against Aedes aegypti fourth instar larvae at 60 ug/ml after 24 hrs; type: functional, organism-based
[4] = system: Aedes aegypti; assay: Larvicidal activity against Aedes aegypti fourth instar larvae at 6.5 ug/ml after 24 hrs; type: functional

COC1=C(C)C(=O)c2cccc(O)c2C1=O
LC90 [1]: 55.72 µg/mL (≈ 255 µM) | LC50 [1]: 31.5 µg/mL (≈ 144 µM)

CC1=CC(=O)c2c(ccc(O)c2O)C1=O
LC90 [1]: 19.28 µg/mL (≈ 94.4 µM) | LC50 [1]: 13.6 µg/mL (≈ 66.8 µM) | Activity [2]: 100%

CC1=CC(=O)c2c(ccc(-c3cc(O)c4c(c3C)C(=O)CCC4=O)c2O)C1=O
LC90 [1]: 42.72 µg/mL (≈ 114 µM) | LC50 [1]: 31.2 µg/mL (≈ 82.9 µM)

CC1=CC(=O)c2c(ccc(C3=C(C)C(=O)c4cccc(O)c4C3=O)c2O)C1=O
Activity [3]: inactive

C[C@H]1C[C@H](O)c2cccc(O)c2C1=O
Activity [3]: inactive

C[C@H]1CC(=O)c2c(O)cccc2[C@H]1O [ISOSHINANOLONE]
LC90 [1]: 4.1 µg/mL (≈ 21.3 µM) | LC50 [1]: 1.26 µg/mL (≈ 6.56 µM)

CC1=CC(=O)c2c(O)ccc(-c3ccc(O)c4c3C(=O)C(C)=CC4=O)c2C1=O [MARITINONE]
LC90 [1]: 53.87 µg/mL (≈ 144 µM) | LC50 [1]: 40.7 µg/mL (≈ 109 µM)

CC1=CC(=O)c2c(O)cccc2C1=O [PLUMBAGIN]
LC90 [1]: 6.56 µg/mL (≈ 34.9 µM) | LC50 [1]: 5.43 µg/mL (≈ 28.9 µM) | Activity [4]: 100%

C=C(C)[C@H]1Cc2c(ccc3c2O[C@@H]2COc4cc(OC)c(OC)cc4[C@@H]2C3=O)O1 [ROTENONE]
LC90 [1]: 25 µg/mL (≈ 63.4 µM) | LC50 [1]: 6.2 µg/mL (≈ 15.7 µM)
